Reference: publication PMC6150311, “Proline-Based Carbamates as Cholinesterase Inhibitors” (Molecules : A Journal of Synthetic Chemistry and Natural …, 2017)

Experiments:
[1] = molecular target: T1, AChE from electric eel (Electrophorus electricus) (Electrophorus electricus, UniProt O42275); assay: In vitro AChE inhibition, modified Ellman's method; format: biochemical
T1 construct: AChE (from electric eel) and BChE (from equine serum); purchased Sigma, St. Louis, MO, USA; host or cells: electric eel (animal source)
Experimental: (§1) The ability of all prepared compounds to inhibit AChE from electric eel (Electrophorus electricus) and BChE from equine serum (both purchased from Sigma, St. Louis, MO, USA) was determined in vitro using a modified Ellman’s method. […] The Ellman’s method is widely used for measuring cholinesterase activity and the effectivity of ChEIs. It is a simple, rapid and direct method to determine SH and –S–S– groups content in proteins. Cholinesterase activity is measured indirectly by quantifying the concentration of 5-thio-2-nitrobenzoic acid (TNB) ion formed in the reaction between disulfide reagent 5,5′-dithiobis-2-nitrobenzoic acid (DTNB) and thiocholine, a product of substrate (i.e., acetylthiocholine, ATCh) hydrolysis catalyzed by cholinesterase.
(§2) All tested compounds were dissolved in DMSO (concentration 0.01 M) and diluted in demineralized water (concentrations 0.001 M and 0.0001 M). The ability of tested compounds to inhibit AChE (from electric eel) and BChE (from equine serum) was determined using the modified Ellman’s method at 25 °C in the presence of phosphate buffered saline (PBS, 0.1 M, pH 7.4) in a glass cuvette with 1 cm optical path. The enzyme activity in total reaction mixture (2 mL) was 0.2 U/mL, the concentration of substrate ATCh 40 μM and the concentration of DTNB 0.1 mM for all reactions. The IC50 value was obtained from the dependence of v0/vi on the concentration of the tested compound (inhibitor), where v0 is the reaction rate of uninhibited reaction and vi is the reaction rate of inhibited reaction (for the given concentration of the inhibitor). First, v0 was determined. Into the cuvette PBS (0.1 M, pH 7.4), DTNB and ATCh were placed. The enzymatic reaction was started by adding the enzyme. […] The measurement was performed in triplicate at least, and average v0 was determined. Then, vi (for the given concentration of the inhibitor) was determined. Into the cuvette DTNB, ATCh, a chosen volume of the suitably diluted inhibitor (to achieve the required concentration of the inhibitor in the total reaction mixture) and a certain volume of PBS (to achieve the total volume of the reaction mixture 2 mL after adding the enzyme) were placed. The enzymatic reaction was started by adding the enzyme. […] For determination of IC50 values, twelve different concentrations of inhibitor were used and each measurement was performed in triplicate at least.

BChE from equine serum = molecular target: T2, BChE from equine serum (Equus caballus, UniProt P81908); assay: In vitro BChE inhibition, modified Ellman's method; format: biochemical; conditions: for SI (index selectivity) = IC50 (AChE)/IC50 (BChE): ratio AChE/BChE, higher = more selective to BChE
T2 construct: BChE (from equine serum); purchased Sigma, St. Louis, MO, USA; host or cells: equine serum
Experimental: as §1, §2

[2] = system: human monocytic leukemia THP-1 cells; assay: In vitro cytotoxicity assay (WST-1); format: cell-based; conditions: 24 h, highest tested concentration 30 μM, read-out: tox. IC50
Experimental: The cytotoxicity was evaluated as the IC50 value (compound concentration causing 50% inhibition of cell population proliferation) (see Table 1). […] Based on these observations, it can be concluded that the discussed compounds can be considered as non-toxic agents for subsequent design of novel drugs.
Human monocytic leukemia THP-1 cells were used for in vitro toxicity assay. Cells were obtained from the European Collection of Cell Cultures (ECACC, Salisbury, UK) and routinely cultured in RPMI 1640 (Lonza, Verviers, Belgium) medium supplemented with 10% fetal bovine serum (FBS, Sigma), 2% L-glutamine, 1% penicillin and streptomycin (Lonza, Verviers, Belgium) at 37 °C with 5% CO2. Cells were passaged at approximately one week intervals. The cytotoxicity of the compounds was determined using a WST-1 assay kit (Roche Diagnostics, Mannheim, Germany) according to the manufacturer’s instructions. The tested compounds were dissolved in DMSO and added in five increasing concentrations (0.37, 1.1, 3.3, 10, and 30 μM) to the cell suspension in the culture RPMI 1640 medium. The maximum concentration of DMSO (Sigma) in the assays never exceeded 0.1%. Subsequently, the cells were incubated for 24 h at 37 °C with 5% CO2. For WST-1 assays, cells were seeded into 96-well plates (5 × 10^4 cells/well in 100 μL culture medium) in triplicate in serum-free RPMI 1640 medium, and measurements were taken 24 h after the treatment with the compounds. The median inhibition concentration values, IC50, were deduced through the production of a dose-response curve. All data were evaluated using the GraphPad Prism 5.00 software (GraphPad Software, San Diego, CA, USA).

T1 sequence (O42275 24-633): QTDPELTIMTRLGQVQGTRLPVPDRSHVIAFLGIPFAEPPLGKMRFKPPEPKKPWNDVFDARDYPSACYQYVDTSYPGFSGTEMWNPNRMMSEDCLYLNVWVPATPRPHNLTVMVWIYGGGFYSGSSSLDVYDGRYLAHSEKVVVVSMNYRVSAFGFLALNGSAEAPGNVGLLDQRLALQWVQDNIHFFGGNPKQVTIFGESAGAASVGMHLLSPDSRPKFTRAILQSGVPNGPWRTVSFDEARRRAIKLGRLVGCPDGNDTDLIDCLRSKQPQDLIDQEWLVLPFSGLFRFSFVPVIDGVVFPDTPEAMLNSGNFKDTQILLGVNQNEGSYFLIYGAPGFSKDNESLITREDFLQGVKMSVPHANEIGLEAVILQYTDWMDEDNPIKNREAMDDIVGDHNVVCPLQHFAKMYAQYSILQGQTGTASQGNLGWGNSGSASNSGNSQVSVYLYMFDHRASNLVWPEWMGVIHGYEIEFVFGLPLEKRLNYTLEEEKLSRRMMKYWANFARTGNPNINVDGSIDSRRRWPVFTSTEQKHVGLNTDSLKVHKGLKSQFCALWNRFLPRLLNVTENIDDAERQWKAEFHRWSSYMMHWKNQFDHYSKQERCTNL
T2 sequence (P81908 whole entry): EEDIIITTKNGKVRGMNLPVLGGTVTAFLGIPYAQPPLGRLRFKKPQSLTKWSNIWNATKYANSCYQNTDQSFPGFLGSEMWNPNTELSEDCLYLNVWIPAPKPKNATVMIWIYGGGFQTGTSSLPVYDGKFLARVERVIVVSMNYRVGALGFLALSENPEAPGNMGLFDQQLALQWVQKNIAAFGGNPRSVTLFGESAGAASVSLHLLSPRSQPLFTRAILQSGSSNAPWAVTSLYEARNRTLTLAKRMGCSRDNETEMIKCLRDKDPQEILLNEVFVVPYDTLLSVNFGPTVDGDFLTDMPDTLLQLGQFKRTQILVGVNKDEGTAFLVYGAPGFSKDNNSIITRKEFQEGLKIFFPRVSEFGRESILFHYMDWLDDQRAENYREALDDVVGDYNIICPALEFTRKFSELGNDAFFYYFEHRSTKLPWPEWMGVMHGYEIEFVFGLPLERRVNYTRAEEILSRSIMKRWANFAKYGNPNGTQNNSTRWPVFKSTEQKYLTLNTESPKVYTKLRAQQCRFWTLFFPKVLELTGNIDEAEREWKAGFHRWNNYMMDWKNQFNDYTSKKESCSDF

SMILES: O=C(Nc1cccc(O)c1)[C@@H]1CCCN1C(=O)OCc1ccccc1 [Compound 9b, Benzyl (2S)-2-[(3-hydroxyphenyl)carbamoyl]pyrrolidine-1-carboxylate]
- IC50 [1]: 122 ± 1.38 µM
- IC50 (BChE from equine serum): 86.22 ± 0.4 µM
- SI (index selectivity) = IC50 (AChE)/IC50 (BChE) (BChE from equine serum): 1.41
- IC50 [2]: > 30 µM

SMILES: O=C(Nc1cccc(C(F)(F)F)c1)[C@@H]1CCCN1C(=O)OCc1ccccc1 [Compound 7b, Benzyl (2S)-2-{[3-(trifluoromethyl)phenyl]carbamoyl}pyrrolidine-1-carboxylate]
- IC50 [1]: 68.91 ± 0.06 µM
- IC50 (BChE from equine serum): 39.5 ± 1.4 µM
- SI (index selectivity) = IC50 (AChE)/IC50 (BChE) (BChE from equine serum): 1.75
- IC50 [2]: > 30 µM

SMILES: O=C(Nc1ccc(Cl)cc1)[C@@H]1CCCN1C(=O)OCc1ccccc1 [Compound 5c, Benzyl (2S)-2-[(4-chlorophenyl)carbamoyl]pyrrolidine-1-carboxylate]
- IC50 [1]: 77.3 ± 3.8 µM
- IC50 (BChE from equine serum): 147.3 ± 1.18 µM
- SI (index selectivity) = IC50 (AChE)/IC50 (BChE) (BChE from equine serum): 0.52
- IC50 [2]: > 30 µM

SMILES: O=C(Nc1ccccc1)[C@@H]1CCCN1C(=O)OCc1ccccc1 [Compound 1, Benzyl (2S)-2-(phenylcarbamoyl)pyrrolidine-1-carboxylate]
- IC50 [1]: 106 ± 2.2 µM
- IC50 (BChE from equine serum): 55.6 ± 1.01 µM
- SI (index selectivity) = IC50 (AChE)/IC50 (BChE) (BChE from equine serum): 1.91
- IC50 [2]: > 30 µM

SMILES: O=C(Nc1ccccc1F)[C@@H]1CCCN1C(=O)OCc1ccccc1 [Compound 4a, Benzyl (2S)-2-[(2-fluorophenyl)carbamoyl]pyrrolidine-1-carboxylate]
- IC50 [1]: 51.9 ± 0.76 µM
- IC50 (BChE from equine serum): 60 µM
- SI (index selectivity) = IC50 (AChE)/IC50 (BChE) (BChE from equine serum): 0.86
- IC50 [2]: > 30 µM

SMILES: O=C(Nc1ccccc1Cl)[C@@H]1CCCN1C(=O)OCc1ccccc1 [Compound 5a, Benzyl (2S)-2-[(2-chlorophenyl)carbamoyl]pyrrolidine-1-carboxylate]
- IC50 [1]: 46.4 ± 1.05 µM
- IC50 (BChE from equine serum): 53.47 ± 0.52 µM
- SI (index selectivity) = IC50 (AChE)/IC50 (BChE) (BChE from equine serum): 0.87
- IC50 [2]: > 30 µM

SMILES: O=C(Nc1cccc([N+](=O)[O-])c1)[C@@H]1CCCN1C(=O)OCc1ccccc1 [Compound 8b, Benzyl (2S)-2-[(3-nitrophenyl)carbamoyl]pyrrolidine-1-carboxylate]
- IC50 [1]: 65 ± 0.97 µM
- IC50 (BChE from equine serum): 55.9 ± 0.63 µM
- SI (index selectivity) = IC50 (AChE)/IC50 (BChE) (BChE from equine serum): 1.16
- IC50 [2]: > 30 µM

SMILES: O=C(Nc1cccc(F)c1)[C@@H]1CCCN1C(=O)OCc1ccccc1 [Compound 4b, Benzyl (2S)-2-[(3-fluorophenyl)carbamoyl]pyrrolidine-1-carboxylate]
- IC50 [1]: 69.88 ± 0.21 µM
- IC50 (BChE from equine serum): 34.61 ± 0.11 µM
- SI (index selectivity) = IC50 (AChE)/IC50 (BChE) (BChE from equine serum): 2.02
- IC50 [2]: > 30 µM

SMILES: O=C(Nc1cccc(Br)c1)[C@@H]1CCCN1C(=O)OCc1ccccc1 [Compound 6b, Benzyl (2S)-2-[(3-bromophenyl)carbamoyl]pyrrolidine-1-carboxylate]
- IC50 [1]: 74.16 ± 0.2 µM
- IC50 (BChE from equine serum): 47.68 ± 0.08 µM
- SI (index selectivity) = IC50 (AChE)/IC50 (BChE) (BChE from equine serum): 1.56
- IC50 [2]: > 30 µM

SMILES: O=C(Nc1ccc(O)cc1)[C@@H]1CCCN1C(=O)OCc1ccccc1 [Compound 9c, Benzyl (2S)-2-[(4-hydroxyphenyl)carbamoyl]pyrrolidine-1-carboxylate]
- IC50 [1]: 91.08 ± 0.27 µM
- IC50 (BChE from equine serum): 133 ± 0.39 µM
- SI (index selectivity) = IC50 (AChE)/IC50 (BChE) (BChE from equine serum): 0.68
- IC50 [2]: > 30 µM

SMILES: Cc1ccc(NC(=O)[C@@H]2CCCN2C(=O)OCc2ccccc2)cc1 [Compound 3c, Benzyl (2S)-2-[(4-methylphenyl)carbamoyl]pyrrolidine-1-carboxylate]
- IC50 [1]: 123.4 ± 0.44 µM
- IC50 (BChE from equine serum): 153 ± 2.29 µM
- SI (index selectivity) = IC50 (AChE)/IC50 (BChE) (BChE from equine serum): 0.81
- IC50 [2]: > 30 µM

SMILES: COc1ccc(NC(=O)[C@@H]2CCCN2C(=O)OCc2ccccc2)cc1 [Compound 2c, Benzyl (2S)-2-[(4-methoxyphenyl)carbamoyl]pyrrolidine-1-carboxylate]
- IC50 [1]: 109.4 ± 0.22 µM
- IC50 (BChE from equine serum): 117.4 ± 0.45 µM
- SI (index selectivity) = IC50 (AChE)/IC50 (BChE) (BChE from equine serum): 0.93
- IC50 [2]: > 30 µM

SMILES: O=C(Nc1ccc(C(F)(F)F)cc1)[C@@H]1CCCN1C(=O)OCc1ccccc1 [Compound 7c, Benzyl (2S)-2-{[4-(trifluoromethyl)phenyl]carbamoyl}pyrrolidine-1-carboxylate]
- IC50 [1]: 88.6 ± 1.6 µM
- IC50 (BChE from equine serum): 75.5 ± 2.94 µM
- SI (index selectivity) = IC50 (AChE)/IC50 (BChE) (BChE from equine serum): 1.17
- IC50 [2]: > 30 µM

SMILES: COc1cccc(NC(=O)[C@@H]2CCCN2C(=O)OCc2ccccc2)c1 [Compound 2b, Benzyl (2S)-2-[(3-methoxyphenyl)carbamoyl]pyrrolidine-1-carboxylate]
- IC50 [1]: 126 ± 2.79 µM
- IC50 (BChE from equine serum): 58.47 ± 0.42 µM
- SI (index selectivity) = IC50 (AChE)/IC50 (BChE) (BChE from equine serum): 2.16
- IC50 [2]: > 30 µM

SMILES: O=C(Nc1ccc(F)cc1)[C@@H]1CCCN1C(=O)OCc1ccccc1 [Compound 4c, Benzyl (2S)-2-[(4-fluorophenyl)carbamoyl]pyrrolidine-1-carboxylate]
- IC50 [1]: 87.2 ± 1 µM
- IC50 (BChE from equine serum): 58.1 ± 1.39 µM
- SI (index selectivity) = IC50 (AChE)/IC50 (BChE) (BChE from equine serum): 1.50
- IC50 [2]: > 30 µM

SMILES: COc1ccccc1NC(=O)[C@@H]1CCCN1C(=O)OCc1ccccc1 [Compound 2a, Benzyl (2S)-2-[(2-methoxyphenyl)carbamoyl]pyrrolidine-1-carboxylate]
- IC50 [1]: 131 ± 1.29 µM
- IC50 (BChE from equine serum): 51.5 ± 0.75 µM
- SI (index selectivity) = IC50 (AChE)/IC50 (BChE) (BChE from equine serum): 2.54
- IC50 [2]: > 30 µM

SMILES: O=C(Nc1ccccc1C(F)(F)F)[C@@H]1CCCN1C(=O)OCc1ccccc1 [Compound 7a, Benzyl (2S)-2-{[2-(trifluoromethyl)phenyl]carbamoyl}pyrrolidine-1-carboxylate]
- IC50 [1]: 73.2 ± 2.88 µM
- IC50 (BChE from equine serum): 44.9 ± 1.66 µM
- SI (index selectivity) = IC50 (AChE)/IC50 (BChE) (BChE from equine serum): 1.63
- IC50 [2]: > 30 µM

SMILES: Cc1cccc(NC(=O)[C@@H]2CCCN2C(=O)OCc2ccccc2)c1 [Compound 3b, Benzyl (2S)-2-[(3-methylphenyl)carbamoyl]pyrrolidine-1-carboxylate]
- IC50 [1]: 81.06 ± 0.03 µM
- IC50 (BChE from equine serum): 115 ± 4.83 µM
- SI (index selectivity) = IC50 (AChE)/IC50 (BChE) (BChE from equine serum): 0.71
- IC50 [2]: > 30 µM

SMILES: O=C(Nc1ccccc1Br)[C@@H]1CCCN1C(=O)OCc1ccccc1 [Compound 6a, Benzyl (2S)-2-[(2-bromophenyl)carbamoyl]pyrrolidine-1-carboxylate]
- IC50 [1]: 84.1 ± 4.39 µM
- IC50 (BChE from equine serum): 27.4 ± 0.85 µM
- selectivity to BChE (in words) (BChE from equine serum; BChE vs AChE): greater selectivity to BChE
- SI (index selectivity) = IC50 (AChE)/IC50 (BChE) (BChE from equine serum): 3.07
- IC50 [2]: > 30 µM

SMILES: Cc1ccccc1NC(=O)[C@@H]1CCCN1C(=O)OCc1ccccc1 [Compound 3a, Benzyl (2S)-2-[(2-methylphenyl)carbamoyl]pyrrolidine-1-carboxylate]
- IC50 [1]: 61.9 ± 1.35 µM
- IC50 (BChE from equine serum): 98.3 ± 5.88 µM
- SI (index selectivity) = IC50 (AChE)/IC50 (BChE) (BChE from equine serum): 0.63
- IC50 [2]: > 30 µM

SMILES: O=C(Nc1ccc(Br)cc1)[C@@H]1CCCN1C(=O)OCc1ccccc1 [Compound 6c, Benzyl (2S)-2-[(4-bromophenyl)carbamoyl]pyrrolidine-1-carboxylate]
- IC50 [1]: 81.32 ± 0.67 µM
- IC50 (BChE from equine serum): 28.2 ± 0.5 µM
- SI (index selectivity) = IC50 (AChE)/IC50 (BChE) (BChE from equine serum): 2.88
- IC50 [2]: > 30 µM

SMILES: O=C(Nc1ccccc1[N+](=O)[O-])[C@@H]1CCCN1C(=O)OCc1ccccc1 [Compound 8a, Benzyl (2S)-2-[(2-nitrophenyl)carbamoyl]pyrrolidine-1-carboxylate]
- IC50 [1]: 152.21 ± 0.01 µM
- IC50 (BChE from equine serum): 48.7 ± 0.8 µM
- SI (index selectivity) = IC50 (AChE)/IC50 (BChE) (BChE from equine serum): 3.13
- IC50 [2]: > 30 µM
